From patent US20090291156A1, “HERBAL COMPOSITION FOR SKIN CARE” (SAGITTARIUS LIFE SCIENCE CORP., priority 2008, published 2009)

Tests used:
[1] = system: dermal fibroblast collagen and glycosaminoglycan synthesis; assay: Stimulation of dermal fibroblast collagen and glycosaminoglycan synthesis (Sirius red, Safranin O, Alcian blue staining); assay type: cell-based, Human
Method: Human foreskin dermal fibroblasts were cultured in DMEM+10% FCS+Penicillin G (100 unit/ml)/Streptomycin (100 ug/ml)+Glutamine (2 mM)+Sodium pyruvate (0.1 mM) (C-medium) under humidifying atmosphere containing 5% CO2 at 37° C.
5×10^4 cells were plated into each well of 48 multiwell plate. Three to four days later, the cells reached confluency. The medium was replaced with fresh C-medium with or without H2O2 containing 25 ug/ml vitamin C with herbal preparations, Genistein or vitamin A. After treatment for 7 days, the cells were fixed with 10% formalin in saline, and stained with Sirius red, Safranin O or Alcian blue (at pH2.5 for hyaluronic acid staining). The relative amount of extracellular matrix deposition was estimated by visual comparison of the intensity and area of the respective stains.
At the end of treatments, the cells were washed twice with PBS, and were irradiated by UV (365 nm) at 20 mJ/cm^2 in PBS. Fresh serum free medium was replaced, and the cells were fixed and stained 24 hours later.

[2] = Radical scavenging activity examined by DPPH; assay type: biochemical; settings: 0.1 mM DPPH, 30 minutes
Method: Herbal preparations with the designated final concentrations was mixed with 0.1 mM DPPH (2,2-diphenyl-1-picrylhydrazyl), incubated at room temperature in dark for 30 minutes. Absorbance at 517 nm was read by Varian Cary 50 Tablet UV-Visible Spectrophotometer. Vitamin C and vitamin E served as positive controls.

O=c1c(-c2ccc(O)cc2)coc2cc(O)cc(O)c12 [Genistein]
effect on collagen and glycosaminoglycan synthesis (words, Table 3) ([1]; 10 μM, in the presence of 0.1 mM H2O2): did not show significant effect
effect on collagen and glycosaminoglycan synthesis (words, Table 2) ([1]; 10 uM, without H2O2): did not show significant effect

O=C1O[C@H]([C@@H](O)CO)C(O)=C1O [Vit. C, Vitamin C]
% DPPH radical scavenging ([2]; 0.001 mM): 75.0%
% DPPH radical scavenging ([2]; 0.01 mM): 99.3%

Vitamin A
activity on collagen and glycosaminoglycan synthesis (words, FIG. 2) ([1]; 1 μM, in the presence of 0.05 mM H2O2): did not show significant activity
activity on collagen and glycosaminoglycan synthesis compared to control (words, FIG. 1) ([1]; 1 μM, without H2O2): did not show significant activity
effect on collagen and glycosaminoglycan synthesis (words, Table 5) ([1]; 10 μM, UV 365 nm at 20 mJ/cm^2): did not show significant effect
effect on collagen and glycosaminoglycan synthesis (words, Table 4) ([1]; 10 μM, no UV): did not show significant effect

vitamin E [Vit. E]
% DPPH radical scavenging ([2]; 0.01 mM): 70.1%
% DPPH radical scavenging ([2]; 0.1 mM): 86.8%
